Results reported in patent US20250051758A1, “FolA Selection Assay to Identify Strains with Increased Soluble Target Protein Expression” (ABSCI CORPORATION, priority 2021, published 2025).

Test system: E. coli harboring plasmid encoding mCherry-FolA fusion under the control of pBAD promoter

| Compound | Resistance of cells to trimethoprim | Synergy of trimethoprim with sulfamethoxazole | Inhibition of growth by sulfamethoxazole | Sulfamethoxazole concentration at which sensitivity to trimethoprim is restored |
| --- | --- | --- | --- | --- |
| COc1cc(Cc2cnc(N)nc2N)cc(OC)c1OC [trimethoprim] | highly resistant | strong synergy |  |  |
| Cc1cc(NS(=O)(=O)c2ccc(N)cc2)no1 [sulfamethoxazole] |  |  | did not inhibit growth | > 2 µg/mL |
